Bounds are passed on as bounds.

Type in all cases: physicochemical
Data set [1] is described as follows: Saturation solubility, shake-flask with UV quantification. The note with it: for solubility at 72 h: thermodynamic from solid.
Experimental: The FaSSIF and FeSSIF solutions were prepared using Phares SIF powder according to the formulation instructions and the SGF solution was prepared using the guidelines provided. […] The pH and temperature of the supernatant were measured on a SiriusT3 instrument.
Data set [2] is described as follows: Super-saturation measurement (CheqSol): intrinsic and kinetic solubility. The note with it: for ratio super saturation: kinetic solubility divided by intrinsic solubility. The text has this: Anal. Chem. 2005, 77(4), 983-990; 2—Box, K J. Völgyi, G. Baka, E. Stuart, M. Takács-Novák, K. Corner, J E A. Equilibrium vs. kinetic measurements of aqueous solubility, and the ability of compounds to supersaturate in solution—a validation study. J. Pharm. Sci. 2006, 95, 1298-1307; 3—Sköld, C. Winiwarter, S. Johan Wernevik, J. Bergström, F. Engström, L. Allen, R. Box, K. Corner, J. Mole, J. Hallberg, A. Lennernäs, H. Lundstedt, T. Ungell, A-L. Karlén, A. Presentation of a Structurally Diverse and Commercially Available Drug Data Set for Correlation and Benchmarking Studies. J. Med. Chem. 2006, 49(23), 6660-6671;
. Med. Chem.; 2007, 50 (5), 979-983; 5—Llinás, A. Box, K J. Burley, J C. Glen, R C. Goodman, J M. J. A new method for the reproducible generation of polymorphs: two forms of Sulindac with very different solubilities. […] 6—Box K et al, Using Measured pKa, Log P and Solubility to Investigate Supersaturation and Predict BCS Class, Current Drug Metabolism, 2008, 9, 869-878]
1—kinetic solubility is the concentration of a compound in solution at the time when an induced precipitate first appears
2—equilibrium solubility (also called thermodynamic solubility) is the concentration of compound in a saturated solution when excess solid is present, and solution and solid are at equilibrium
3—intrinsic solubility [Hörter, D.; Dressman, J. B. Adv. Drug Deliv. Rev., 1997, 25, 3-14] is the equilibrium solubility of the free acid or base form of an ionisable compound at a pH where it is fully un-ionized
The super-saturation ratio is calculated as the ratio of kinetic solubility divided by the Intrinsic Solubility.

Data set [3] is described as follows: Aqueous solubility of the free acid versus pH. The note with it: aqueous buffer. The text has this:
[…]. […] In certain instances, the active agent is initially present at least partly in an ionized form. In certain other instances, the active agent is initially present in an un-ionized form.

Regarding `CNc1cc2[nH]c(=O)n(-c3ccc(NC(=O)NS(=O)(=O)c4ccc(Cl)s4)cc3)c(=O)c2cc1F` [compound of formula (II), elinogrel], the “final pH measured of the supernatant” value in data set [1] (FaSSIF pH 6.5-1w) was 6.42; in data set [1] (FeSSIF pH 5.0-1w), 4.97; in data set [1] (Na Phosphate pH 6.8) it was 6.80; in data set [1] (Na-Acetate pH 4.5), 4.53; in data set [1] (SGF pH 2.1), 2.21. Also, the solubility (in general, the dissolved amount per volume that the medium holds) at 72 h in data set [1] (aqueous buffer, Na Phosphate pH 6.8, mean N = 2) is 11.3 µg/mL; in data set [1] (aqueous buffer, Na-Acetate pH 4.5, mean N = 2), 0.89 µg/mL; in data set [1] (simulated gastric fluid, SGF pH 2.1, mean N = 2) it was 0.48 µg/mL; in data set [1] (FaSSIF pH 6.5-1w, mean N = 2) it was 25.2 µg/mL; in data set [1] (FeSSIF pH 5.0-1w, mean N = 2), 6 µg/mL. Besides, in data set [2] (kinetic from dmso stock, CheqSol), the kinetic solubility (usually solubility judged after dilution from a stock solution rather than from solid) was found to be 4.17 µg/mL. Further, the ratio super saturation is reported as 179 in data set [2] (listed as Free acid) and 178 in data set [2] (listed as free acid of formula (II)). Also, the solubility in data set [2] (thermodynamic from solid, CheqSol) was 0.0234 µg/mL; in data set [3] (pH 1.0-7.4, read-out: aqueous solubility of the free acid form) it was below 100 µg/mL; in data set [3] (pH 8 or above, read-out: aqueous solubility), at least 1000 µg/mL.

The values above are taken from patent publication US8987285B2, “Pharmaceutical compositions, dosage forms and new forms of the compound of formula (I), and methods of use thereof” (Portola Pharmaceuticals, Inc., priority 2010, dated 2015).
